From patent US8501713B2, “Drug combinations for the treatment of duchenne muscular dystrophy” (Summit Corporation PLC, priority 2007, dated 2013) come the findings set out here.

A value given as a limit tells only on which side of the number the result lay.

The test system of one assay is Utrophin A promoter linked to a luciferase reporter gene. The assay is described as follows: Luciferase reporter assay (murine H2K cells). Format: cell-based. Particulars: Mus musculus, H2K mdx, luciferase level relative to control; H2K/mdx/Utro A reporter cells; compound 10 μM final concentration; read-out: Activity. An outline of the steps:
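Compound at 10 μM final was applied for 48 hrs to plated H2K mdx myoblasts (33° C, 10% CO2, interferon-containing medium) bearing a luciferase gene under the utrophin A promoter. Luminescence from lysed cells served as read-out.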
On to `O=[N+]([O-])c1ccc2oc(Cc3ccccc3)nc2c1` [Example 214, 2-benzyl-5-nitrobenzo[d]oxazole], for which the activity at 10 µM is less than 200%.
With `CS(=O)(=O)c1ccc(-c2nc3cc(Cl)ccc3o2)cc1` [Example 395, 5-chloro-2-(4-(methylsulfonyl)phenyl)benzo[d]oxazole], the activity at 10 µM was 201 to 300%.
As for `Nc1ccc2oc(-c3cnc4ccccc4c3)nc2c1` [Example 403, 2-(quinolin-3-yl)benzo[d]oxazol-5-amine], the activity at 10 µM is 301 to 400%.
For `Fc1cc2nc(-c3ccc4ccccc4c3)oc2cc1F` [Example 452, 5,6-Difluoro-2-(naphthalen-2-yl)benzo[d]oxazole], the activity at 10 µM was greater than 401%.
The same measure, in the same setting: the value for `Cc1ccc(-c2nc3ncccc3o2)cc1` [Example 158, 2-p-tolyloxazolo[4,5-b]pyridine] was less than 200%.
Take `O=C(Nc1ccc2oc(-c3cccnc3)nc2c1)c1ccc(F)cc1` [Example 48, 4-fluoro-N-(2-(pyridin-3-yl)benzo[d]oxazol-5-yl)benzamide]: the activity at 10 µM was less than 200%.
Take `CCSc1cccc(-c2ccc3oc(-c4ccc(Cl)cc4)nc3c2)c1` [Example 292, 2-(4-chlorophenyl)-5-(3-(ethylthio)phenyl)benzo[d]oxazole]: the activity at 10 µM was 201 to 300%.
As to `CC(C)C(=O)Nc1ccc2oc(-c3ccc4c(c3)OCO4)nc2c1` [Example 300, N-(2-(benzo[d][1,3]dioxol-5-yl)benzo[d]oxazol-5-yl)isobutyramide], the activity at 10 µM lay within 301 to 400%.
The same measure, in the same setting: the value for `O=[N+]([O-])c1ccc2oc(C3CCCCC3)nc2c1` [Example 163, 2-cyclohexyl-5-nitrobenzo[d]oxazole] was less than 200%; that for `O=[N+]([O-])c1ccc2nc(-c3ccc(Cl)cc3)[nH]c2c1` [Example 164, 2-(4-chlorophenyl)-6-nitro-1H-benzo[d]imidazole] was 201 to 300%.
As for `CCS(=O)(=O)c1ccc2oc(-c3ccccc3)nc2c1` [Example 84, 5-(ethylsulfonyl)-2-phenylbenzo[d]oxazole], the activity at 10 µM fell in the range of 201 to 300%.
Regarding `CCCCC(=O)Nc1ccc2oc(-c3ccc(C(F)(F)F)cc3)nc2c1` [Example 126, N-(2-(4-(trifluoromethyl)phenyl)benzo[d]oxazol-5-yl)pentanamide], the activity at 10 µM is less than 200%.
Same read-out and setting: under `CC(C)C(=O)Nc1ccc(-c2nc3ccc(Cl)cc3o2)cc1` [Example 333, N-(4-(6-chlorobenzo[d]oxazol-2-yl)phenyl)isobutyramide] stands 201 to 300%; under `O=C(Nc1ccc2oc(-c3cccc(Cl)c3Cl)nc2c1)c1cccc(Cl)c1Cl` [Example 376, 2,3-dichloro-N-(2-(2,3-dichlorophenyl)benzo[d]oxazol-5-yl)benzamide], less than 200%.
Consider `CCN(CC)c1ccc(-c2nc3cc(Cl)ccc3o2)cc1` [Example 131, 4-(5-chlorobenzo[d]oxazol-2-yl)-N,N-diethylaniline], for which the activity at 10 µM fell in the range of 301 to 400%.
In the case of `O=C(Nc1ccc2oc(-c3ccccc3)nc2c1)c1ccccc1` [Example 59, N-(2-phenylbenzo[d]oxazol-5-yl)benzamide], the activity at 10 µM was 201 to 300%.
The same measure, in the same setting: under `CC(C)C(=O)Nc1ccc2oc(-c3ccc(Cl)cc3F)nc2c1` [Example 343, N-(2-(4-chloro-2-fluorophenyl)benzo[d]oxazol-5-yl)isobutyramide] stands greater than 401%.
Still for that read-out and setting: under `CC(=O)Nc1ccc(-c2nc3cc(-c4ccc(Cl)cc4)ccc3o2)cc1` [Example 372, N-(4-(5-(4-chlorophenyl)benzo[d]oxazol-2-yl)phenyl)acetamide] stands less than 200%; under `O=C(CC(F)(F)F)Nc1ccc2oc(-c3ccc(Cl)cc3)nc2c1` [Example 345, N-(2-(4-chlorophenyl)benzo[d]oxazol-5-yl)-3,3,3-trifluoropropanamide], 301 to 400%.
Still for that read-out and setting: the value for `CC(C)C(=O)Nc1ccc2oc(-c3ccccc3Cl)nc2c1` [Example 230, N-(2-(2-chlorophenyl)benzo[d]oxazol-5-yl)isobutyramide] was greater than 401%; that for `Cc1ccc(-c2nc3cc(NCC(C)C)ccc3o2)cc1` [Example 186, N-isobutyl-2-p-tolylbenzo[d]oxazol-5-amine] was 301 to 400%.
As to `CC(C)(C)c1ccc2oc(-c3ccccc3)nc2c1` [Example 129, 5-tert-butyl-2-phenylbenzo[d]oxazole], the activity at 10 µM was greater than 401%.
Same read-out and setting: the value for `CCCc1ccc(-c2nc3ccc(-c4nc5ccc(C(=O)O)cc5o4)cc3o2)cc1` [Example 110, 2′-(4-propylphenyl)-2,6′-bibenzo[d]oxazole-6-carboxylic acid] was less than 200%; that for `O=C(Nc1ccc2oc(-c3ccc4ccccc4c3)nc2c1)c1cccs1` [Example 385, N-(2-(naphthalen-2-yl)benzo[d]oxazol-5-yl)thiophene-2-carboxamide] was less than 200%.
On to `O=C(Nc1ccc2oc(-c3ccccc3)nc2c1)c1ccc(Cl)c(Cl)c1` [Example 28, 3,4-dichloro-N-(2-phenylbenzo[d]oxazol-5-yl)benzamide], for which the activity at 10 µM is less than 200%.
For the compound `COCCC(=O)Nc1ccc2oc(-c3ccc(Cl)cc3)nc2c1` [Example 323, N-(2-(4-chlorophenyl)benzo[d]oxazol-5-yl)-3-methoxypropanamide], the activity at 10 µM is greater than 401%.
Same read-out and setting: under `CC(=O)Nc1ccc(-c2ccc3oc(-c4ccc(Cl)cc4)nc3c2)cc1` [Example 252, N-(4-(2-(4-chlorophenyl)benzo[d]oxazol-5-yl)phenyl)acetamide] stands 301 to 400%.
`Nc1ccc(-c2nc3cc(N)ccc3o2)c(O)c1` [Example 82, 5-amino-2-(5-aminobenzo[d]oxazol-2-yl)phenol]: the activity at 10 µM was in the range of 201 to 300%.
With `O=C(Nc1ccc2oc(-c3ccc(Cl)cc3)nc2c1)c1ccc(Cl)cc1` [Example 89, 4-chloro-N-(2-(4-chlorophenyl)benzo[d]oxazol-5-yl)benzamide], the activity at 10 µM is less than 200%.
Turning to `CC(O)c1ccc2oc(-c3ccc(Cl)c(Cl)c3)nc2c1` (stereo not drawn) [Example 456, 2-(3′,4′-Dichlorophenyl)-5-(1′-hydroxyethyl)-benzoxazole], the activity at 10 µM is greater than 401%.
The same measure, in the same setting: under `CC(C)C(=O)Nc1ccc2oc(-c3ccc(Cl)c(Cl)c3)nc2c1` [Example 268, N-(2-(3,4-dichlorophenyl)benzo[d]oxazol-5-yl)isobutyramide] stands greater than 401%.
Turning to `Clc1ccc(-c2nc3cc(NCc4ccccc4)ccc3o2)cc1` [Example 184, N-benzyl-2-(4-chlorophenyl)benzo[d]oxazol-5-amine], the activity at 10 µM was less than 200%.
Still for that read-out and setting: the value for `CCS(=O)(=O)c1ccc2oc(-c3cccc(Cl)c3F)nc2c1` [Example 391, 2-(3-chloro-2-fluorophenyl)-5-(ethylsulfonyl)benzo[d]oxazole] was 201 to 300%.
Turning to `CCN(CC)c1ccc(-c2nc3cc(NC(=O)c4ccc(C)cc4)ccc3o2)cc1` [Example 64, N-(2-(4-(diethylamino)phenyl)benzo[d]oxazol-5-yl)-4-methylbenzamide], the activity at 10 µM is less than 200%.
As for `c1ccc(-c2nc3c(ccc4ccccc43)o2)cc1` [Example 86, 2-phenylnaphtho[1,2-d]oxazole], the activity at 10 µM lay in the range of 301 to 400%.
Same read-out and setting: under `Cc1ccc(-c2nc3cc(C(C)(C)C)ccc3o2)cc1` [Example 172, 5-tert-butyl-2-p-tolylbenzo[d]oxazole] stands greater than 401%.

Staying with this assay, now noted: luciferase reporter assay in murine H2K cells; classified relative to control.
On to `Cn1c(NC(=N)c2ccccc2)nc2ccccc21` [Example 669], for which the Activity entry was “++ (Between 201% and 300% relative to control)”.
Still for that read-out and setting: under `Cc1ccc2nc(-c3ccc(NC(=O)c4cccnc4)cc3)sc2c1` [Example 638] stands “+++ (Between 301% and 400% relative to control)”; under `Clc1ccc(OCc2nc3ccccc3[nH]2)cc1` [Example 495], “+ (Up to 200% relative to control)”.
Still for that read-out and setting: the value for `Cc1ccc2nc(-c3ccc(NC(=O)c4cccs4)cc3)oc2c1` [Example 672] was “++ (Between 201% and 300% relative to control)”; that for `CCOc1ccc(NCc2nc3ccccc3n2C)cc1` [Example 676] was “++ (Between 201% and 300% relative to control)”.
With `COc1ccc(-c2nc3cc([N+](=O)[O-])ccc3[nH]2)cc1OC` [Example 520], the Activity result is on record as “+ (Up to 200% relative to control)”.
Still for that read-out and setting: under `CCOc1ccc2nc(NC(=O)c3ccccc3)sc2c1` [Example 555] stands “+ (Up to 200% relative to control)”; under `CCc1ccc2oc(-c3cccc(N)c3)nc2c1` [Example 502], “++ (Between 201% and 300% relative to control)”.
Turning to `Cc1ccc(-c2nc3ccccc3[nH]2)cc1N` [Example 620], the Activity entry is “++++ (Above 401% relative to control)”.
For `CC(=O)Nc1ccc(-c2nc3ccccc3[nH]2)cc1` [Example 591], the Activity result is “+++ (Between 301% and 400% relative to control)”.
As for `O=[N+]([O-])c1ccc2nc(-c3ccccc3)[nH]c2c1` [Example 604], the Activity entry was “+++ (Between 301% and 400% relative to control)”.
On the same count and under the same terms, the value for `CCc1ccc2oc(-c3ccc(C)c(N)c3)nc2c1` [Example 625] was “++++ (Above 401% relative to control)”.
On to `c1csc(-c2nc3ccccc3[nH]2)c1` [Example 463], for which the Activity entry is recorded as “+ (Up to 200% relative to control)”.
Consider `Nc1c(C(=O)Nc2ccccc2F)sc2nc3c(cc12)CCC3` [Example 673], for which the Activity result was “++ (Between 201% and 300% relative to control)”.
Regarding `O=C(Nc1ccccc1-c1nc2ccccc2[nH]1)c1ccc(S(=O)(=O)N2CCCC2)cc1` [Example 511], the Activity result is reported as “+ (Up to 200% relative to control)”.
For the compound `CC(C)C(=O)Nc1ccc(-c2nc3ccccc3s2)cc1` [Example 651], the Activity entry was “+++ (Between 301% and 400% relative to control)”.
For the compound `COc1ccc(OCc2nc3ccccc3n2C)cc1` [Example 528], the Activity entry is “++ (Between 201% and 300% relative to control)”.
Regarding `COc1ccc(-c2nc3ccc([N+](=O)[O-])cc3o2)cc1` [Example 584], the Activity result was “+++ (Between 301% and 400% relative to control)”.
